From patent US20230233533A1, “COMPOSITIONS, METHODS OF TREATING AND PREVENTING FUNGAL INFECTIONS, AND METHODS OF INHIBITING PRP8 INTEIN EXPRESSION” (Health Research, Inc., priority 2020, published 2023)
≈ marks a conversion by molar mass, not a printed value. Where “and” joins values, the source holds several entries; their conditions need not be identical. Equal entries are not always repeated. Where two headings read alike, the source gives them in different places.

Legend:
[1] = system: human lung carcinoma cell line A549; experiment: in vitro; format: cell-based; settings: 48 h, MTT
Procedure, shortened: (§1)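 A549 cells (5×10^3 per well) were exposed to compounds at 37 °C for 48 h, and viability was read by MTT assay; N=3.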

Prp8 intein [2] = target: T1, Prp8 intein (Cryptococcus gattii, UniProt E6R027); experiment: Split GFP-Prp8i intein splicing assay; format: biochemical; settings: for IC50: split GFP-Prp8 intein splicing
Description: Cloning, expression and purfication—The split GFP-Prp8i was constructed using a mega-PCR mutagenesis approach. […] After digestion with Dpn I restriction enzyme, the PCR product was transformed into DH5α Escherichia coli. Clones were verified by plasmid DNA sequencing. The expression, refolding and purification of the GFP-Prp8i fusion protein were carried out as described previously.
[…] Then 100 μl 2×TCEP was added to a final concentration of 20 μM. The reactions were incubated at 25° C. overnight. […] Two readings were taken, one prior to addition of TCEP (I0) and one after incubation overnight with TCEP (If). Fluorescence/luminescence differences (ΔFluorescence or ΔLuminescence) were defined as If−I0 for each well. […] DMF control served as 100% splicing activity.
Split GFP-Prp8 and CJGFP-Prp8 intein splicing assays—Using black and clear bottom 96-well plates, the DPNB-treated, -refolded and -concentrated GFP-Prp8 or CfGFP-Prp8 fusion protein (0.5 μM) was incubated with compounds or Dimethylsulfoxide (DMSO) solvent control for 30 min at 25° C. in a 100 μl intein splicing buffer (20 mM Bis-tris propane, 0.5 M NaCl, 0.5 M arginine, 1 mM EDTA, and 0.05% CHAPS). Then 100 μl 2×TCEP was added to a final concentration of 20 μM. The reactions were incubated at 25° C. overnight. […] Two readings were taken, one prior to addition of TCEP (I0) and one after incubation overnight with TCEP (If). Fluorescence/luminescence differences (ΔFluorescence or ΔLuminescence) were defined as If−I0 for each well. […] DMSO control served as 100% splicing activity.

Prp8 intein [3] = target: T1, Prp8 intein; experiment: Split Renilla luciferase RLuc-Prp8 intein splicing assay; format: biochemical; settings: split Renilla luciferase RLuc-Prp8 intein splicing
Description: Split luciferase Prp8 intein splicing assay—The split RLuc-Prp8 fusion protein was carried out and monitored using a Veritas luminometer, as described previously.
Split luciferase RLuc-Prp8 and NnLuc-Prp8 intein splicing assays—The split RLuc-Prp8 intein splicing assay was carried out and monitored using a Veritas luminometer, as described previously. […] Microbes. Infect. […] For NnLuc-Prp8 intein splicing assay, the NnLuc-prp8 is diluted in assay buffer (50 mM Tris, 0.1% BSA, 1 mM EDTA, pH 7.4) and 50 ul is added to each well in 96 well black plates. Test molecules or the solvent was added and incubated for 30 to 60 min. A splicing inducer TCEP (50 ul, 100 μM) is added and incubated for 24 h. Luciferase substrate (Furimazine, 25 ul 1:10,000 diluted) is added and luminescence is read using a luminescence reader. IC50 is calculated using Graphpad prism.

C. neoformans H99 strain = experiment: Fungal susceptibility test, broth microdilution MIC; format: cell-based, Cryptococcus neoformans
Procedure, shortened: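 Compound MICs were determined by broth microdilution using a compound concentration series.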

C. neoformans = experiment: Sensititre YeastOne Y09 AST drug combination assay; format: cell-based, Cryptococcus neoformans; settings: 6G-318S at 0.16 ug/ml, C. neoformans H99
Description: Sensititre YeastOne Y09 AST assay—Fungal susceptibility to a combination of compounds was carried out using the Sensititre YeastOne Y09 AST assay kit (Thermofisher), according to the manufacturer's manual. Briefly, fungal C. neoformans cells in exponential growth phase were diluted to a final OD530 of 0.1. Then 20 μl diluted cells were further diluted into 10 ml YPD as a stock. […] The stock C. neoformans (100 μl, ˜200 cells) were dispensed into the compound-ready 96-well plate. The fungal cells (treated or with DMF) were incubated at 30° C. for 48 h. The cell cultures were visualized by naked eye. The MIC break points were determined according to manufacturer's instructions.

C. neoformans H99 = experiment: Checkerboard assay; format: cell-based, Cryptococcus neoformans; settings: for MIC: Cryptococcus neoformans, H99, 48 h
Description: Compounds were initially dissolved in DMSO and diluted in RPMI-1640-MOPS media four times the targeted final concentration and 50 μl was added per well. The second compound was similarly diluted and 50 μl was added per well, to a final volume of 100 μl/well. C. neoformans […] inoculum (100 μl) prepared from freshly grown cultures and diluted to an absorbance of 0.1 at 530 nm in water and further diluted (1:500) in RPMI-1640-MOPS was added to each well. To determine the fungicidal concentration of a compound, the wells with no visible growth were serially diluted, plated on SDA, and incubated at 30° C. for 48-72 h for the recovery of colony-forming units. Additionally, the cell density of treated and untreated wells was also estimated by reading absorbance at 630 nm using an EL808 reader (Bio-Tek). Percentage of inhibition compared to that of the no-drug-control well was calculated. […] Fractional inhibitory concentration (FIC) index value is calculated as the […]. The FIC index value is then used to categorize the interaction of the two compounds tested. […] Doern, C., “When Does 2 plus 2 Equal 5?A Review of Antimicrobial Synergy Testing,” Journal of Clinical Microbiology 52(12):4124-4128 (2014), which is hereby incorporated by reference in its entirety.

in vitro = format: cell-based, human; settings: human, CC50 A549
Procedure, shortened: as §1

trypsin = experiment: Trypsin protease inhibition (Abz FRET substrate); format: biochemical; settings: compound at 400 μM
Description: (§2) Trypsin and papain protease inhibition—An Abz FRET substrate (Abz-RRRRSAG-nTyr) developed previously (Li et al., “Existing Drugs as Broad-Spectrum and Potent Inhibitors for Zika Virus by Targeting NS2B-NS3 Interaction,” Cell Research 27(8):1046-1064 (2017), which is hereby incorporated by reference in its entirety) was used as the substrate for inhibition of trypsin and papain proteases. In black and clear-bottom 96-well plates, 1 μg trypsin (Sigma-Aldrich) was incubated with DMF or compounds at 400 μM at 25° C. for 30 min in a 70 μl reaction buffer containing 20 mM Tris, pH 8.0, 100 mM NaCl, 5% Glycerol, and 0.05% CHAPS. For papain, 1 μg Papain (Sigma-Aldrich) was incubated with compounds at 400 μM at 25° C. for 30 min in a 70 μl reaction buffer composed of 1.1 mM EDTA, 0.067 mM β-mercaptoethanol, 5.5 mM cysteine. […]

Candida albicans = experiment: Fungal susceptibility test, broth microdilution MIC; format: cell-based; settings: microdilution assay
Description: Fungal susceptibility test—The fungal susceptibility test was carried out with a compound concentration series as described. Li et al., “Cisplatin Protects Mice From Challenge of Cryptococcus neoformans by Targeting the Prp8 Intein,” Emerging Microbes & Infections 8(1):895-908 (2019), which is hereby incorporated by reference in its entirety. The broth microdilution method was used to determine the compound MIC values against C. neoformans. In brief, serial 2-fold dilutions of the 6G-318SS (20 to 0.03 μg/ml) were made in 100 μl RPMI-1640 medium with MOPS in 96-well U-bottom plates. The C. neoformans H99 strain (100 μl of 0.5×10^5/ml) in log phase was added to each well. […] The MIC break-point was defined as no visible fungal growth by naked eye or by determining the 90% growth inhibition using absorbance at 630 nm, compared with no inhibitor control in a 96-well plate.
C. albicans, a fungus without the Prp8 intein, was also used as a control.

papain = target: T2, papain (Carica papaya, UniProt P00784); experiment: Papain protease inhibition (Abz FRET substrate); format: biochemical; settings: compound at 400 μM
T2 construct: purchased Sigma-Aldrich
T2 sequence (P00784 134-345): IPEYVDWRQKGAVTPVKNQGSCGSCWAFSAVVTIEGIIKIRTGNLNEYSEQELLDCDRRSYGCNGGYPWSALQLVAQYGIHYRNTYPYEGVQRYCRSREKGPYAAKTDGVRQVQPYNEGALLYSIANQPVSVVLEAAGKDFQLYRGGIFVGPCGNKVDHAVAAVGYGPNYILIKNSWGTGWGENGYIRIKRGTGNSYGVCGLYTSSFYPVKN
Description: as §2

Prp8 intein [4] = target: T1, Prp8 intein; settings: value from Li et al. 2019; read-out: IC50 determined using the RLuc-Prp8 assay; cited from earlier work

T1 sequence (E6R027 entry or part of it): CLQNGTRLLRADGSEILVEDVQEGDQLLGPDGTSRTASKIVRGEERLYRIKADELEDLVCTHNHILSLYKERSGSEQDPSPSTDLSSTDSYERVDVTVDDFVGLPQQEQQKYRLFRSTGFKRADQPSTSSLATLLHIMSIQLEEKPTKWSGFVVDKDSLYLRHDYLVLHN

5-((4-Chlorophenyl)sulfonyl)-N-(6-fluoropyridin-3-yl)-1,2,3-thiadiazole-4-carboxamide [JMX0581]
CC50 [1]: 92.4 µM
IC50 (Prp8 intein [2]): 6.1 µM
IC50 (Prp8 intein [3]): 11.2 µM

5-((4-Chlorophenyl)thio)-N-(6-fluoropyridin-3-yl)-1,2,3-thiadiazole-4-carboxamide [JMX0580]
CC50 [1]: 33.1 µM
IC50 (Prp8 intein [2]): 35.3 µM
MIC (C. neoformans H99 strain; C. neoformans H99, microbroth dilution, read-out: MIC H99): >100 µM
IC50 (Prp8 intein [3]): 6.4 µM

Nc1nc(=O)[nH]cc1F [5-FC, 5-fluorocytosine, reference compound]
reduction of MIC of known antifungal on addition of 6G-318S (C. neoformans): 2 fold
MIC (C. neoformans H99): 8.1 µg/mL
MIC-comb (C. neoformans H99; combination 6G-318S + 5-FC, well D6): 2.025 µg/mL

O=C(Nc1ccc(F)cc1F)c1nnsc1S(=O)(=O)c1ccc(Cl)cc1 [6G-319S, 5-((4-Chlorophenyl)sulfonyl)-N-(2,4-difluorophenyl)-1,2,3-thiadiazole-4-carboxamide]
CC50 at 48 h (in vitro): 44.9 µg/mL and ~108 µM
inhibition of trypsin protease activity (trypsin): neither 6G-318S, 6G-319S, nor cisplatin significantly inhibited
MIC (Candida albicans): 20.8 µg/mL (≈ 50 µM)
inhibition at 20 µM (Prp8 intein [2]; compound at 20 μM, read-out: inhibition of the GFP-Prp8i signal / Prp8 intein splicing): > 50%
IC50 (Prp8 intein [2]): 9.7 µM
MIC (C. neoformans H99 strain; Cryptococcus neoformans, H99STRAIN, H99 strain, 48 h, 30° C., read-out: MIC C. neoformans): 1.3 µg/mL
inhibition of papain protease activity (papain): neither 6G-318S, 6G-319S, nor cisplatin significantly inhibited

C[C@@H]1[C@H](O)[C@@H](C)/C=C/C=C/C=C/C=C/C=C/C=C/C=C/[C@H](O[C@@H]2O[C@H](C)[C@@H](O)[C@H](N)[C@@H]2O)C[C@@H]2O[C@](O)(C[C@@H](O)C[C@@H](O)[C@H](O)CC[C@@H](O)C[C@@H](O)CC(=O)O[C@H]1C)C[C@H](O)[C@H]2C(=O)O [AmB, amphotericin B, reference compound]
reduction of MIC of known antifungal on addition of 6G-318S (C. neoformans): more than 4 fold
MIC-alone (C. neoformans H99; C. neoformans H99, 48 h, 90% inhibition): 0.578 µg/mL
MIC-comb (C. neoformans H99; combination 6G-318S + AmB, well F6): 0.144 µg/mL

CCC(C)n1ncn(-c2ccc(N3CCN(c4ccc(OCC5COC(Cn6cncn6)(c6ccc(Cl)cc6Cl)O5)cc4)CC3)cc2)c1=O (stereo not shown) [IZ, itraconazole, reference compound]
reduction of MIC of known antifungal on addition of 6G-318S (C. neoformans): 2 fold
MIC (C. neoformans H99): 0.176 µg/mL
MIC-comb (C. neoformans H99; combination 6G-318S + IZ, well D6): 0.088 µg/mL

C[C@@H](c1ncncc1F)[C@](O)(Cn1cncn1)c1ccc(F)cc1F [Vor, Voriconazole, reference compound]
reduction of MIC of known antifungal on addition of 6G-318S (C. neoformans): 2 fold
MIC (C. neoformans H99): 0.044 µg/mL
MIC-comb (C. neoformans H99; combination 6G-318S + Vor, well G3): 0.087 µg/mL

N.N.[Cl][Pt][Cl] [cisplatin, reference compound]
IC50 (Prp8 intein [4]): 2.5 µM
inhibition of trypsin protease activity (trypsin): neither 6G-318S, 6G-319S, nor cisplatin significantly inhibited
fluorescence increase of the GFP-Prp8i fusion (Prp8 intein [2]; cisplatin 40 μM, GFP-Prp8i 200 nM): significantly reduced
IC50 (Prp8 intein [2]): 6.7 µM
inhibition of papain protease activity (papain): neither 6G-318S, 6G-319S, nor cisplatin significantly inhibited
